# Literature values in patent US20150073057A1, “COMPOSITION AND METHOD FOR TREATMENT OF DIABETES” (BioKier, Inc., priority 2013, published 2015).
# Tested on: overweight and obese human subjects
substance,measurement,value
"Oxyntomodulin: a gut hormone, 37 amino acid peptide co-secreted along with GLP-1 from L-cells",reduction of energy intake,~17%
